# How the values were obtained:
# [1] = test system: Donor 1 COP T-Cell Lines; assay: ATP proliferation assay (CellTiter Glo), Donor 1 COP T-cell lines, incl. reactivity to non-canonical GA peptides; format: cell-based, human; details: for ATP Proliferation Assay, Mean: Day 56, second assay; for luminescent ATP proliferation assay, mean: no antigen 5673 (Table 9); for Proliferation (luminescent ATP assay), Mean: Day 56 of culturing
# Procedure: Proliferation was evaluated by measuring ATP content using a luminescent method (CellTiter Glo Luminescent Cell Viability Assay, Promega, Madison, Wis., cat. #G7571) or by measuring BrdU uptake by ELISA (Millipore cat. #2752), in both cases following kit instructions. A split well format was used. Cells in each well were resuspended and 65 μl transferred to the wells of each of two new U-bottom 96-well plates, to generate the replicate plates. For the initial screening, the original 96-well plate received mitomycin-treated autologous PBMC as APC plus 10 μg/mL antigen (GA). A first replicate plate received 100 μl., mitomycin-treated PBMC alone (2×10^5), and no antigen, and a second replicate plate received 100 μL mitomycin-treated PBMC plus GA at a final concentration of 10 μg/mL. Therefore, all three plates received autologous APC (PBMC) treated with mitomycin C to prevent cell division. […] The latter two plates were incubated for 3 days at 37° C., 6% CO2 before adding CellTiter Glo or BrdU and measuring signal. IL-2 was added at 10 U/mL to the original 96-well plate for expansion on Day 17. For subsequent screenings, mitomycin-treated EBV-transformed autologous B-LCL (2×10^5 to 5×10^5 cells/mL) were used as APC.
# COP-responsive T-cell lines were obtained from Donor 1. In the initial stimulation, isolated PBMC were plated at 1×10^5 cells per well (5×10^5 cells/mL) with 10 μg/mL Copaxone and cultured as described above. IL-2 was added to all wells on Days 4 and 7 of culture, and the wells screened for reactivity on Day 14 using a luminescent proliferation assay in split well format. The original plate was restimulated, and IL-2 added 4 days after restimulation.
# (§1) T-cell line 222-2D8, generated from Donor 1 by initial stimulation with COP, was shown in at least two experiments to proliferate comparably following restimulation with GMA and COP. […] ATP levels were measured at 48 hours after stimulation. The control in the GMA series was no antigen, and the control in the COP series was MBP. The response to GMA in comparison to COP at the 10 μg/mL dose in this assay was 103.4%.
# In a second ATP proliferation assay, carried out on Day 56 or culturing following stimulation with 1, 3, or 10 μg/mL of GMA or COP, the response to GMA in comparison to COP at the 10 μg/mL dose was 107.1%.
# as §1, with “line 222-2F1,” for “line 222-2D8,”, “Donor 222” for “Donor 1”, “was 85.1%.” for “was 103.4%.”
# On Day 56 of culturing, after six total rounds of stimulation, cell line 222-2F12 was assayed for proliferation in response to stimulation with GA and a series of non-canonical peptides. For the assay, 0, 3, 10, or 30 μg/mL of each of peptides GL 14, GLT 631, GAT 111, and GAT 631, COP, and GMA, were added to the T-cell lines at 1×10^5 cells/mL, in the presence of mitomycin C-treated autologous B-LCL. Proliferation was measured by luminescent ATP assay. Cell line 222-2F12 responded to GL 14 at 3 μg/mL, and not to the other non-canonical GA peptides tested. The response to GMA in comparison to COP at the 10 μg/mL dose in this assay was 99.4%.
# The cultures were restimulated on days 46, 56, 67 and 75. On Day 56, cell lines 222-2D8, 222-1H12, 222-2F12, 222-2B8, 222-105, 222-2B11, and 222-2E1 again were tested for reactivity to stimulation with 1, 3, or 10 μg/mL of GMA or COP in a proliferation assay. ATP levels were measured in all seven cell lines at 48 hours (results in FIGS. 5A-G) after stimulation. The control in the GMA series was no antigen, and the control in the COP series was MBP. […]
# [2] = test system: Donor 4 COP T-Cell Lines; assay: ATP proliferation assay (CellTiter Glo), Donor 4 COP T-cell lines, incl. reactivity to non-canonical GA peptides; format: cell-based, human; details: for luminescent ATP proliferation assay, Mean RLU: 205-1H7, Day 59, 4 days incubation, 0 μg/mL 3382; for Mean, ATP proliferation assay: Cell Line 205-1F4
substance,measurement,setting,value
glatiramer acetate [COP],ATP proliferation assay,"[1]; 222-1C5, 10 μg/mL, Day 14, control 7087",14906 RLU
same,ATP proliferation assay,"[1]; 222-1F8, 10 μg/mL, Day 14, control 2308",6519 RLU
same,ATP proliferation assay,"[1]; 222-1G8, 10 μg/mL, Day 14, control 4030",8308 RLU
same,ATP proliferation assay,"[1]; 222-1H12, 10 μg/mL, Day 14, control 8141",23836 RLU
same,ATP proliferation assay,"[1]; 222-2B8, 10 μg/mL, Day 14, control 5543",13600 RLU
same,ATP proliferation assay,"[1]; 222-2B11, 10 μg/mL, Day 14, control 6340",16460 RLU
same,ATP proliferation assay,"[1]; 222-2C1, 10 μg/mL, Day 14, control 8350",20166 RLU
same,ATP proliferation assay,"[1]; 222-2C3, 10 μg/mL, Day 14, control 6839",14045 RLU
same,ATP proliferation assay,"[1]; 222-2C5, 10 μg/mL, Day 14, control 4695",9577 RLU
same,ATP proliferation assay,"[1]; 222-2D2, 10 μg/mL, Day 14, control 7135",16271 RLU
same,ATP proliferation assay,"[1]; 222-2D8, 10 μg/mL, Day 14, control 13024",26495 RLU
same,"ATP Proliferation Assay, Mean","[1]; 222-2D8, 1 μg/mL (Table 7)",7229
same,"ATP Proliferation Assay, Mean","[1]; 222-2D8, 3 μg/mL (Table 7)",134127
same,"ATP Proliferation Assay, Mean","[1]; 222-2D8, 10 μg/mL (Table 7)",146092
same,ATP proliferation assay,"[1]; 222-2D8, Day 56, 48 hours after stimulation, 1 μg/mL (Table 6)",4888
same,ATP proliferation assay,"[1]; 222-2D8, Day 56, 48 hours after stimulation, 3 μg/mL (Table 6)",6392
same,ATP proliferation assay,"[1]; 222-2D8, Day 56, 48 hours after stimulation, 10 μg/mL (Table 6)",12161
same,ATP proliferation assay,"[1]; 222-2E1, 10 μg/mL, Day 14, control 8035",17064 RLU
same,ATP proliferation assay,"[1]; 222-2F12, 10 μg/mL, Day 14, control 9703",28022 RLU
same,"luminescent ATP proliferation assay, mean","[1]; 222-2F12, Day 56, 3 μg/mL",233087
same,"luminescent ATP proliferation assay, mean","[1]; 222-2F12, Day 56, 10 μg/mL",230009
same,"luminescent ATP proliferation assay, mean","[1]; 222-2F12, Day 56, 30 μg/mL",118769
same,ATP proliferation assay,"[1]; 222-2F12, Day 56, 48 hours after stimulation, 1 μg/mL (Table 8)",5281
same,ATP proliferation assay,"[1]; 222-2F12, Day 56, 48 hours after stimulation, 3 μg/mL (Table 8)",8684
same,ATP proliferation assay,"[1]; 222-2F12, Day 56, 48 hours after stimulation, 10 μg/mL (Table 8)",11747
same,ATP proliferation assay,"[1]; 222-2G4, 10 μg/mL, Day 14, control 2566",6812 RLU
same,ATP proliferation assay,"[1]; 222-2G12, 10 μg/mL, Day 14, control 3913",9899 RLU
same,"Proliferation (luminescent ATP assay), Mean","[1]; T-cell line 222-1H12, 3 μg/mL antigen, 0 μg/mL 5974",146874 RLU
same,"Proliferation (luminescent ATP assay), Mean","[1]; T-cell line 222-1H12, 10 μg/mL antigen, 0 μg/mL 5974",168163 RLU
same,"Proliferation (luminescent ATP assay), Mean","[1]; T-cell line 222-1H12, 30 μg/mL antigen, 0 μg/mL 5974",68492 RLU
same,"Proliferation (luminescent ATP assay), Mean","[1]; T-cell line 222-2F12, 3 μg/mL antigen, 0 μg/mL 5673",233087
same,"Proliferation (luminescent ATP assay), Mean","[1]; T-cell line 222-2F12, 10 μg/mL antigen, 0 μg/mL 5673",230009
same,"Proliferation (luminescent ATP assay), Mean","[1]; T-cell line 222-2F12, 30 μg/mL antigen, 0 μg/mL 5673",118769
same,ATP proliferation signal relative to control,"[1]; fifteen Donor 1 COP T-cell lines of Table 5, 10 μg/mL",at least twice the signal as control
same,"luminescent ATP proliferation assay, Mean RLU",[2]; 1 μg/mL,13131 RLU
same,"luminescent ATP proliferation assay, Mean RLU",[2]; 10 μg/mL,175652 RLU
same,"luminescent ATP proliferation assay, Mean RLU",[2]; 30 μg/mL,190750 RLU
same,"Mean, ATP proliferation assay","[2]; Day 50, 1 μg/mL",47254
same,"Mean, ATP proliferation assay","[2]; Day 50, 3 μg/mL",169021
same,"Mean, ATP proliferation assay","[2]; Day 50, 10 μg/mL",213196
same,"Mean, ATP proliferation assay","[2]; Day 58, 3 μg/mL",21031
same,"Mean, ATP proliferation assay","[2]; Day 58, 10 μg/mL",31423

# Reference: patent US9995734B2, “Human T cell line assay for evaluating the immunologic identity of glatiramer acetate preparations” (Mylan Inc., priority 2013, dated 2018)
